For series [1], the target named is T1, Peptidyl-prolyl cis-trans isomerase FKBP5 (Homo sapiens, UniProt Q13451).
T1 sequence (Q13451 whole entry): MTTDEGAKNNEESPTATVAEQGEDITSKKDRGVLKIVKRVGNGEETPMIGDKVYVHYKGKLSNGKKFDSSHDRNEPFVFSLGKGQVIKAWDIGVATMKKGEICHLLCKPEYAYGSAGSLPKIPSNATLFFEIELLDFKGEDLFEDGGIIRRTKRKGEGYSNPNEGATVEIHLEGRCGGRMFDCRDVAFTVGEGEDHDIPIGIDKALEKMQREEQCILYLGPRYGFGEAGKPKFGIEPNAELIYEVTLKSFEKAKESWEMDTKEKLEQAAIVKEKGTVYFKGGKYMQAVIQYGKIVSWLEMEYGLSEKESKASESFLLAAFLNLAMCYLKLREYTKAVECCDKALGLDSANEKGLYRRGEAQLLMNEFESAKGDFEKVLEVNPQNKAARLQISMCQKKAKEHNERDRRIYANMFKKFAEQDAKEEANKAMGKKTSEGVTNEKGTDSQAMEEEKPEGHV
In words: Binding affinity to FKBP51 (unknown origin) assessed as inhibition constant by fluorescence polarization assay.

The target in series [2] is T2, Peptidyl-prolyl cis-trans isomerase FKBP4 (Homo sapiens, UniProt Q02790).
T2 sequence (Q02790 whole entry): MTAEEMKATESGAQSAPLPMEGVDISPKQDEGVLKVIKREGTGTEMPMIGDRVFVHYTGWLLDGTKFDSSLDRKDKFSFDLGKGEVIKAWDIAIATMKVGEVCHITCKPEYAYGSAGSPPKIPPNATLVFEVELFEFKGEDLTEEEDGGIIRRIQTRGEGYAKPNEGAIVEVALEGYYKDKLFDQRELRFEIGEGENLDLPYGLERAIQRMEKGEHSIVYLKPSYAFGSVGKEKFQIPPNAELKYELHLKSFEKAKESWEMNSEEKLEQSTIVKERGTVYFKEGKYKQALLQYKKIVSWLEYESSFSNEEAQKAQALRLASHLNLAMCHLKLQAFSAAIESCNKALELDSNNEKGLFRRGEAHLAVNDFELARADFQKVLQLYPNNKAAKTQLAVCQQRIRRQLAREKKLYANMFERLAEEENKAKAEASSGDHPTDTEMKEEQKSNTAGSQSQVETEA
In words: Binding affinity to FKBP52 (unknown origin) assessed as inhibition constant by fluorescence polarization assay. (In general: Fluorescence polarisation rises when a labelled molecule tumbles more slowly, as on binding a larger partner.)

The nature of series [3]: Half life in C57BL/6 mouse at 10 mg/kg, ip measured after 6 hrs. Format: ADME, organism-based. The settings on record: in vivo.
The nature of series [4]: Drug accumulation in C57BL/6 mouse gonadal white adipose tissue at 10 mg/kg, ip administered as single dose and measured after 6 hrs. The settings on record: in vivo. It is filed as ADME, organism-based.
Series [5] is described as follows: Cmax in C57BL/6 mouse at 10 mg/kg, ip measured after 6 hrs. Format: ADME, organism-based. The arrangement: time 6 hrs, dose 10 mg/kg, route ip. The settings on record: in vivo.
Series [6] addresses Transient receptor potential cation channel subfamily V member 1 (Mus musculus) (UniProt Q704Y3). In words: Desensitization of TRPV1 in naive C57BL/Nrj mouse dorsal root ganglion primary sensory neurons assessed as reduction in capsaicin-stimulated calcium influx at 1 uM preincubated for 2 mins followed by capsaicin stimulation and measured after 20 secs relative to control. The settings on record: Primary sensory neuron, time 140.0 sec. Format: tissue-based. Further details: scale not given: the % may be the effect or the level left.

For series [7], the target named is T2, Peptidyl-prolyl cis-trans isomerase FKBP4. In words: Inhibition of FKBP52 (unknown origin) expressed in HEK293T cells incubated for 2 hrs by NanoBRET assay. Format: cell-based. For orientation: BRET reads energy transfer from a luciferase to a nearby fluorophore.
A short description of series [8]: Volume of distribution in C57BL/6 mouse at 10 mg/kg, ip measured after 6 hrs. Format: ADME, organism-based. The settings on record: in vivo.
Series [9] can be described thus: Tmax in C57BL/6 mouse at 10 mg/kg, ip measured after 6 hrs. Format: ADME, organism-based. The settings on record: in vivo.
Series [10] is described as follows: Drug penetration in C57BL/6 mouse brain at 10 mg/kg, ip administered as single dose and measured after 6 hrs. Format: ADME, organism-based. The settings on record: in vivo.
Series [11] has as its target T1, Peptidyl-prolyl cis-trans isomerase FKBP5. Description: Inhibition of FKBP51 (unknown origin) expressed in HEK293T cells incubated for 2 hrs by NanoBRET assay. It is filed as cell-based.
Series [12] concerns the target Transient receptor potential cation channel subfamily V member 1 (Mus musculus) (UniProt Q704Y3). Description: Desensitization of TRPV1 in C57BL/Nrj mouse dorsal root ganglion primary sensory neurons assessed as reduction in capsaicin-stimulated calcium influx at 0.5 uM preincubated for 2 mins followed by capsaicin stimulation and measured after 20 secs. Format: tissue-based. The settings on record: Primary sensory neuron, time 140.0 sec.

The target in series [13] is T1, Peptidyl-prolyl cis-trans isomerase FKBP5. Description: Binding affinity to FKBP51 (unknown origin).

The structures appear in SMILES notation. Calls of active or inactive are those of the source.

Sequence of Transient receptor potential cation channel subfamily V member 1 (Mus musculus) (Q704Y3 whole entry): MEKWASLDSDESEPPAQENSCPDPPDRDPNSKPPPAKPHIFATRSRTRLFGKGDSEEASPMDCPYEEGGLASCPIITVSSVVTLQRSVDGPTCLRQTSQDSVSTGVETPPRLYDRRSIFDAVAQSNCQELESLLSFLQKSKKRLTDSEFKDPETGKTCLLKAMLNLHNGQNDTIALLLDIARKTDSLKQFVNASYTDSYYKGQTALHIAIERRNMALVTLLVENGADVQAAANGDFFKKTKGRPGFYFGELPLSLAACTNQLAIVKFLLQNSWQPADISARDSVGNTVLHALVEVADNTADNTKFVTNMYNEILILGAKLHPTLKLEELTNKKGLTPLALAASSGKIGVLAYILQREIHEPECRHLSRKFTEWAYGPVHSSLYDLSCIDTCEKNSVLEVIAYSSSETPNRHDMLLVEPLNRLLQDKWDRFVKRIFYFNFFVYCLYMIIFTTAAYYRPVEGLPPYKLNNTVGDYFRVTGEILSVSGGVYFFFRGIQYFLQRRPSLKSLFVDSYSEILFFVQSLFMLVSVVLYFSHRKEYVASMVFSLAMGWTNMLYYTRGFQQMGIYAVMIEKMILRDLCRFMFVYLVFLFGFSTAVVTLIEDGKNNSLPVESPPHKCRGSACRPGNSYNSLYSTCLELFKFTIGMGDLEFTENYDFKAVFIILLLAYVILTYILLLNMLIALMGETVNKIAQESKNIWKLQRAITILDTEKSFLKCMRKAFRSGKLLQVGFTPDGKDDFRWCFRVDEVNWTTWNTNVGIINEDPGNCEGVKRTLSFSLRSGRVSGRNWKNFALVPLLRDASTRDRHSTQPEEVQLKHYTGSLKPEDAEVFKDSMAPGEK

The term Ki denotes the dissociation constant of the complex between target and ligand, obtained from inhibition or displacement. As to `COc1ccc(CC[C@@H](OC(=O)[C@@H]2CCCCN2C(=O)[C@H](c2cc(OC)c(OC)c(OC)c2)c2ccc(C#N)s2)c2cccc(OCC(=O)O)c2)cc1OC`, the Ki in series [1] turned out to be 23 nM; in series [2] it was 2730 nM.
The corresponding values for `COc1ccc(CC[C@@H](OC(=O)[C@@H]2CCCCN2C(=O)[C@H](c2cc(OC)c(OC)c(OC)c2)c2ccc(C3CC3)s2)c2cccc(OCC(=O)O)c2)cc1OC` are 41 nM and more than 1000 nM.
For the compound `CC[C@@H](C(=O)N1CCCC[C@H]1C(=O)O[C@H](CCc1ccc(OC)c(OC)c1)c1cccc(OCC(=O)O)c1)c1ccc(Cl)s1`, the inhibitory constant (Ki) in series [1] is 210 nM; in [2], more than 10000 nM.
The corresponding values for `CCc1ccc([C@H](C(=O)N2CCCC[C@H]2C(=O)O[C@H](CCc2ccc(OC)c(OC)c2)c2cccc(OCC(=O)O)c2)c2cc(OC)c(OC)c(OC)c2)s1` are 13 nM and more than 1000 nM.
Broadly, the half-life is the time needed for the level to fall by half in the phase considered. In general, Cmax refers to the highest concentration seen after dosing. The term IC50 denotes the concentration that gives 50% inhibition. In general, Tmax refers to the time at which the peak concentration occurs. `COc1ccc(CCC(OC(=O)C2CCCCN2C(=O)[C@H](c2cc(OC)c(OC)c(OC)c2)c2ccc(Cl)s2)c2cccc(OCCN3CCOCC3)c2)cc1OC` (single isomer, unassigned): the half-life in series [3] is 4.3 h. In addition, the Drug uptake entry in series [4] and in series [10] was “Active” in each case. Also, the Cmax in series [5] stood at 990 ng/mL. The Activity in series [6] worked out at 50%. Besides, the IC50 in [7] was determined as 2900 nM; in series [11] it was 584 nM. In addition, the Vd in series [8] worked out at 0.3 L. The inhibitory constant (Ki) in series [1] is 19 nM; in series [2], 774 nM. Moreover, in series [9], the Tmax worked out at 0.5 h.
Turning to `COc1ccc(CC[C@@H](OC(=O)[C@@H]2CCCCN2C(=O)C(c2ccc(Cl)s2)C2CCCCC2)c2cccc(OCC(=O)O)c2)cc1OC` (stereo partly specified), the values for the inhibition constant (Ki) in series [1] and in series [2] were 154 nM and more than 10000 nM, respectively.
For `COc1ccc(CC[C@@H](OC(=O)[C@@H]2CCCCN2C(=O)[C@H](C)c2ccc(Cl)s2)c2cccc(OCC(=O)O)c2)cc1OC`, in that order: 300 nM and more than 50000 nM.
For `C=CC[C@@H](C(=O)N1CCCC[C@H]1C(=O)O[C@H](CCc1ccc(OC)c(OC)c1)c1cccc(OCC(=O)O)c1)c1ccc(Cl)s1`, in that order: 223 nM and more than 10000 nM.
The corresponding values for `COc1ccc(CC[C@@H](OC(=O)[C@@H]2CCCCN2C(=O)[C@@H](c2ccsc2)c2cc(OC)c(OC)c(OC)c2)c2cccc(OCC(=O)O)c2)cc1OC` are 140 nM and 18000 nM.
Turning to `COc1ccc(CC[C@@H](OC(=O)[C@@H]2CCCCN2C(=O)[C@@H](c2ccccc2)c2cc(OC)c(OC)c(OC)c2)c2cccc(OCC(=O)O)c2)cc1OC`, the inhibitory constant (Ki) in series [1] came to 118 nM; in [2], 43800 nM.
`COc1ccc(CCC(OC(=O)C2CCCCN2C(=O)[C@H](c2cc(OC)c(OC)c(OC)c2)c2ccc(C)s2)c2cccc(OCCN3CCOCC3)c2)cc1OC` (single isomer, unassigned): the outcome in series [12] was Active. For the same compound, the Activity in [6] was 50%. In addition, the Ki was determined as 17 nM in series [1] and 775 nM in [2]. This compound also gave a half-maximal inhibitory concentration (IC50) in series [11] of 613 nM.
`COc1ccc(CC[C@@H](OC(=O)[C@@H]2CCCCN2C(=O)[C@H](c2cc(OC)c(OC)c(OC)c2)c2ccc(Br)s2)c2cccc(OCC(=O)O)c2)cc1OC`: the inhibition constant (Ki) in series [1] was 7 nM; in [2], 436 nM.
For `COc1ccc(CC[C@@H](OC(=O)[C@@H]2CCCCN2C(=O)C(c2cccs2)C2CCCCC2)c2cccc(OCC(=O)O)c2)cc1OC` (stereo partly specified), in that order: 442 nM and more than 30000 nM.
Turning to `COc1ccc(CC[C@H]2OC(=O)[C@@H]3CCCCN3C(=O)[C@@H](C3CCCCC3)NC(=O)C3(CC3)NC(=O)COc3cccc2c3)cc1OC`, in [13], the Ki is 400 nM.
As to `COc1ccc(CC[C@@H](OC(=O)[C@@H]2CCCCN2C(=O)[C@H](c2cc(OC)c(OC)c(OC)c2)c2ccc(Cl)s2)c2cccc(OCC(=O)O)c2)cc1OC`, the figures for the Ki in [1] and in series [2] were 4 nM and 950 nM, respectively.
With `COc1ccc(CC[C@@H](OC(=O)[C@@H]2CCCCN2C(=O)[C@H](c2cc(OC)c(OC)c(OC)c2)C2CCCCC2)c2cccc(OCC(=O)O)c2)cc1OC`, the inhibition constant (Ki) in series [1] came out at 6 nM; in [2], 3860 nM.
For `COc1ccc(CC[C@@H](OC(=O)[C@@H]2CCCCN2C(=O)[C@H](c2cc(OC)c(OC)c(OC)c2)c2cccs2)c2cccc(OCC(=O)O)c2)cc1OC`, in that order: 103 nM and 10200 nM.
In series [3], `COc1ccc(CC[C@@H](OC(=O)[C@@H]2CCCCN2C(=O)[C@@H](CN2CCOCC2)c2cc(OC)c(OC)c(OC)c2)c2cccc(OCC(=O)O)c2)cc1OC` showed a half-life of 3.7 h. In addition, in series [5], the highest concentration (Cmax) came out at 3060 ng/mL. Further, the IC50 was 3180 nM in series [7] and 196 nM in series [11]. This compound also gave a Vd in [8] of 0.1 L. Further, the Ki in [1] was 8 nM; in [2] it was 2160 nM. Also, the time of peak concentration (Tmax) in series [9] came to 1 h.
Regarding `COc1ccc(CC[C@H]2OC(=O)[C@@H]3CCCCN3C(=O)[C@@H](C3CCCCC3)c3cc(OC)c(OC)c(c3)OC[C@H](O)[C@H](O)COc3cccc2c3)cc1OC`, in [13], the inhibitory constant (Ki) came out at 5 nM.
Take `COc1ccc(CC[C@@H](OC(=O)[C@@H]2CCCCN2C(=O)[C@H](c2cc(OC)c(OC)c(OC)c2)c2ccc(C)s2)c2cccc(OCC(=O)O)c2)cc1OC`: the inhibitory constant (Ki) in [1] is 7 nM; in series [2], 1030 nM.

The values above are taken from ChEMBL document CHEMBL5338748, “Structure-Based Discovery of a New Selectivity-Enabling Motif for the FK506-Binding Protein 51” (J Med Chem, 2023).
